Measurements as given in US10143696B2, “Methods and compositions for decreasing gastric emptying” (priority 2015, dated 2018).
Read-outs that look alike come from different tables or passages of the source.

Key:
[1] = tested on: CD1 mice; assay: Gastric emptying of a test meal in mice; assay type: in vivo
Experimental: Rats were fasted overnight (16-18 hours) with free access to water. The next morning, compound was administered and animals were individually housed in bedding-free cages with pre-weighed food available ad libitum and access to water for 2 hours. The water and food were then removed and the remaining food was re-weighed. Gastric emptying of the ingested meal was assessed 4 hours later. Animals were euthanized by CO2 inhalation followed by thoracotomy. The abdominal cavity was opened, the pylorus and cardia were clamped and the stomach was removed. The excised stomach was weighed and then opened along the greater curvature, rinsed with tap water, lightly dried and re-weighed. The amount of food in the stomach (grams) was estimated based on the difference between the total weight of the stomach plus its contents and the weight of the stomach after the contents were removed. The meal ingested (food intake) was determined by the difference between pre- and post-feeding weight at the end of the 2 hour period. Gastric emptying during the 4 hour experiment is represented as: Gastric emptying=[1−(gastric content/food intake)]×100. Gastric Secretion
Male, CD1 mice (weighing between 30-36 g each and 6 mice per test group) were fasted overnight (19 hours). The mice then were subcutaneously administered 3 mg/kg of Compound A with a 25% HPBCD vehicle, a 25% HPBCD vehicle alone, orally administered 100 mg/kg of Compound A with a 0.5% MC vehicle, or a 0.5% MC vehicle alone. The mice were then placed in individual, bedding-free cages and allowed ad libitium access to pre-weighed food and water for two hours. The food and water were then removed and the food was reweighed. Gastric emptying was assessed four hours later by euthanizing the mice and analyzing the stomach and stomach contents. Data were analyzed using an unpaired t-test where *P<0.05 and ***P<0.001 and represented as the means+S.E.M. % Gastric Emptying in 4 hours=(1−(gastric content/food intake)×100).

[2] = tested on: Sprague-Dawley rats; assay: Gastric secretion volume and pH in fasted rats; assay type: in vivo, rat
Experimental: Gastric section and acidity was assessed by direct measurement in fasted animals (Melo et al. (2006). “Effect of acid secretion blockade on acute gastric mucosal lesions induced by Tityus serrulatus scorpion toxin in anaesthetized rats.” Toxicon 48(5): 543-549). Rats were fasted with free access to water for 24 hours on wire inserts without bedding. The next day, all rats were dosed orally with 0.5% MC (5 ml/kg) to remove any residual stomach contents and test compound or vehicle was administered. The animals were water deprived for 3 hours, anesthetized with isoflurane (5% in O2), and a laparotomy was conducted followed by tight ligation of the pylorus and cardia. After ligation, the stomach was removed and the rat was immediately euthanized by decapitation. The stomach was opened along the greater curvature and gastric fluid collected into Eppendorf tubes and centrifuged (5 min at 10×1000 g). pH was determined by pipetting gastric fluid directly onto an indicator stick (Whatman, Panpeha Plus, pH0-14). Data are represented as the mean volume and mean pH.
Male, Sprague-Dawley rats (weighing between 254-270 g each and 6 rats per test group) were fasted overnight (24 hours) on wire inserts without bedding. The rats were first orally dosed with 0.5% MC vehicle and then subcutaneously injected with 3 mg/kg or 10 mg/kg of Compound A with a 25% HPBCD vehicle or with a 25% HPBCD vehicle alone. The test animals were water deprived for 3 hours and then anesthetized with isoflurane and the pylorus and cardia were tightly ligated. The stomachs were then removed and the rats were euthanized. The gastric fluid was removed from the stomachs and collected in eppendorf tubes by cutting along the greatest curvature and spun in a centrifuge. Gastric secretion data were analyzed by a one-way ANOVA using a Bonferroni Multiple Comparison test, where *P<0.05 and **P<0.01 as compared to the appropriate vehicle. Data are represented as the means+S.E.M. PH data were analyzed by a one-way ANOVA using Dunnett's Multiple Comparison Test. Data are represented as the means+S.E.M.
This Example measured volume and pH of gastric secretion three hours post subcutaneous administration of 10 mg/kg of Compound A. The animals were water deprived during this time.

[3] = tested on: Sprague-Dawley rats; assay: Gastrointestinal transit, charcoal meal assay; assay type: in vivo, rat
Experimental: Small intestinal transit was measured based on a known method which involved the oral administration of a charcoal meal (Gmerek et al. (1986). “Independent central and peripheral mediation of morphine-induced inhibition of gastrointestinal transit in rats.” J Pharmacol Exp Ther 236(1): 8-13). Rats were fasted with free access to water for 18 hours. Test compound or vehicle was dosed prior to oral administration of a charcoal slurry containing activated charcoal, flour and water in a ratio of 1:2:7.5 (10 ml/kg orally). One hour after receiving the charcoal slurry, rats were euthanized by CO2 asphyxiation. The stomach and GI tract was excised from each animal. Whole stomach weight was recorded and the length of the small intestine (cm) (stomach to cecum) and the distance (cm) to the leading edge of charcoal was measured. Small intestinal transit data are expressed as a percentage of the distance traveled (i.e. % small intestinal transit=(distance charcoal traveled)/(total length of small intestine (stomach to cecum)×100). Pretreatment times were determined on the basis of pharmacokinetic data (not shown) and were as follows: Compound A, 60 minutes, Compound C, 60 minutes; carbamazepine, 60 minutes. Morphine was administered with a pretreatment time of 30 mins based on previous experience.

[4] = assay type: in vivo, cynomolgus monkeys
Experimental: Compound A (10-100 mg/kg) was administered orally to cynomolgus monkeys and blood specimens were collected prior to dose administration and at target time points of 0.5, 1, 3, 5, 8, and 24 hours post-dose administration. Blood was collected via the femoral vein into tubes containing tripotassium ethylene-diamine-tetraacetic acid (K3EDTA) as the anticoagulant. Whole blood was centrifuged to obtain plasma (9000×g for 10 minutes at 4° C.) which was transferred into labeled tubes and stored at −80° C. Plasma calibration standards, blanks, and study samples were processed by protein precipitation. To a 50 μL aliquot 150 μL of a 10 ng/mL solution of an internal standard and 150 μL of acetonitrile was added. The mixture was eluted using positive pressure and analyzed by liquid chromatography/mass spectrometry/mass spectrometry with m/z transition of 462-417. Compound A concentrations were calculated using area response ratios and a regression line constructed from the concentrations and peak area response ratios of the calibration standards. […]. The lower limit of quantification (LLOQ) for the plasma method is approximately 0.5 ng/mL and the upper limit of quantification (ULOQ) is approximately 1000 ng/mL extracted from plasma using a 50-μL aliquot of sample.
As such, a pharmacokinetic and observational study was conducted in cynomologous monkeys (FIG. 16). Plasma concentrations of Compound A were measured following a single oral dose of 10, 50 and 100 mg/kg up to 24 hours post-dosing (FIGS. 16A, B and C).

[5] = p.o. 100 mg/kg, 0.5% MC vehicle
[6] = Compound A 10 mg/kg s.c. alone, three hours post administration (Example 17)
[7] = s.c. 3, 10 mg/kg, 25% HPBCD, 3 hours (Example 10)

## C[C@H](Nc1cc(C(N)=O)nc(-c2ccc(Oc3ccc(OC(F)(F)F)cc3)cc2)n1)C(N)=O [Compound A]
[1]; [5]
  % Gastric Emptying in 4 hours: inhibit gastric emptying
  stomach weight: stomach weight increase
[1]; s.c. 3 mg/kg, 25% HPBCD vehicle
  % Gastric Emptying in 4 hours: inhibit gastric emptying
[2]; [6]
  pH of gastric secretion: increase in gastric secretion and pH
  volume of gastric secretion: increase in gastric secretion and pH
[2]; lansoprazole 30 mg/kg p.o. 30 minutes prior to Compound A 10 mg/kg s.c. (Example 17)
  volume and pH of gastric secretion: not different from that achieved by Compound A alone
[2]; [7]
  pH of gastric secretion: remains unaffected
  volume of gastric secretion: increases with increasing dosages of Compound A
[3]; charcoal meal assay
  dosage level with significant effect on stomach weight: 100 mg/kg
[3]; charcoal meal assay, vs vehicle treated animals
  stomach weight: statistically significant increase in stomach weight
[3]; charcoal meal, 60 minutes pretreatment, vs vehicle
  gastrointestinal transit (% small intestinal transit): No statistically significant decrease in gastrointestinal transit
[4]; monkey, p.o. 10 mg/kg
  time up to which plasma concentration continued increasing: 8 h
[4]; monkey, p.o. 50 mg/kg and 100 mg/kg
  time up to which plasma concentration continued increasing: 24 h
[4]; monkey, single oral dose of 10, 50 and 100 mg/kg
  plasma levels versus dose: increased with increasing dose in an approximately linear fashion
[4]; monkey, single oral dose of 10, 50 and 100 mg/kg, up to 24 hours
  plasma concentrations: measurable at all doses
[4]; p.o., at 24 hrs
  plasma level of the individual monkey presenting the highest plasma levels: over 3000 ng/ml
